{"source": "patent US10787452B2", "about": "(Vertex Pharmaceuticals Incorporated, priority 2012, dated 2020)"}
{"test_system": "HCT116 colorectal cancer cells", "test": "Cisplatin sensitization assay (96 h cell viability MTS);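 note: compound concentration needed to lower the Cisplatin-alone IC50 by a set fold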", "format": "cell-based", "details": "96 h MTS, compound plus Cisplatin", "outline": "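Viability is measured with MTS reagent, added after 96 h and developed for 1 h at 37° C. Beforehand, cells receive compound and cisplatin simultaneously in a concentration matrix of 2-fold serial dilutions starting at 10 μM final.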"}
{"smiles": "CN(C)CCCN(C)C(=O)C1CCN(c2c(F)cncc2NC(=O)c2c(N)nn3cc(F)cnc23)CC1", "note": "[I-G-16, 2-amino-N-(4-(4-((3-(dimethylamino)propyl)(methyl)carbamoyl)piperidin-1-yl)-5-fluoropyridin-3-yl)-6-fluoropyrazolo[1,5-a]pyrimidine-3-carboxamide]", "Cisplatin Sensitization Assay": "+++ (Compounds with a Cisplatin sensitization value of <0.02 μM are marked with “+++.”)"}
{"smiles": "CS(=O)(=O)C1CCN(c2ccncc2NC(=O)c2c(N)nn3cc(F)cnc23)CC1", "note": "[I-N-190, 2-amino-6-fluoro-N-(4-(4-(methylsulfonyl)piperidin-1-yl)pyridin-3-yl)pyrazolo[1,5-a]pyrimidine-3-carboxamide]", "Cisplatin Sensitization Assay": "+++ (Compounds with a Cisplatin sensitization value of <0.02 μM are marked with “+++.”)"}
{"smiles": "Nc1nn2cc(Cl)cnc2c1C(=O)Nc1cnccc1N1CCn2ccnc2C1", "note": "[I-N-44, 2-amino-6-chloro-N-(4-(5,6-dihydroimidazo[1,2-a]pyrazin-7(8H)-yl)pyridin-3-yl)pyrazolo[1,5-a]pyrimidine-3-carboxamide]", "Cisplatin Sensitization Assay": "++ (Compounds with a Cisplatin sensitization value >0.02 μM but <0.2 μM are marked with “++.”)"}
{"smiles": "CC(C#N)c1cnc2c(C(=O)Nc3cnccc3N3CCN(C4COC4)CC3)c(N)nn2c1", "note": "(stereo not drawn) [I-N-143, 2-amino-6-(1-cyanoethyl)-N-(4-(4-(oxetan-3-yl)piperazin-1-yl)pyridin-3-yl)pyrazolo[1,5-a]pyrimidine-3-carboxamide]", "Cisplatin Sensitization Assay": "++ (Compounds with a Cisplatin sensitization value >0.02 μM but <0.2 μM are marked with “++.”)"}
{"smiles": "CS(=O)(=O)N1CCN(c2ccncc2NC(=O)c2c(N)nn3cc(F)cnc23)CC1", "note": "[I-N-178, 2-amino-6-fluoro-N-(4-(4-(methylsulfonyl)piperazin-1-yl)pyridin-3-yl)pyrazolo[1,5-a]pyrimidine-3-carboxamide]", "Cisplatin Sensitization Assay": "+++ (Compounds with a Cisplatin sensitization value of <0.02 μM are marked with “+++.”)"}
{"smiles": "COCCOc1ccncc1NC(=O)c1c(N)nn2cc(CC#N)cnc12", "note": "[I-O-29, 2-amino-6-(cyanomethyl)-N-(4-(2-methoxyethoxy)pyridin-3-yl)pyrazolo[1,5-a]pyrimidine-3-carboxamide]", "Cisplatin Sensitization Assay": "+++ (Compounds with a Cisplatin sensitization value of <0.02 μM are marked with “+++.”)"}
{"smiles": "Nc1nn2cc(F)cnc2c1C(=O)Nc1cnccc1C1CCN(S(=O)(=O)C2CC2)CC1", "note": "[I-C-47, 2-amino-N-(4-(1-(cyclopropylsulfonyl)piperidin-4-yl)pyridin-3-yl)-6-fluoropyrazolo[1,5-a]pyrimidine-3-carboxamide]", "Cisplatin Sensitization Assay": "+++ (Compounds with a Cisplatin sensitization value of <0.02 μM are marked with “+++.”)"}
{"smiles": "Nc1nn2cc(Cl)cnc2c1C(=O)Nc1cnccc1OC1CNC1", "note": "[I-O-73, 2-amino-N-(4-(azetidin-3-yloxy)pyridin-3-yl)-6-chloropyrazolo[1,5-a]pyrimidine-3-carboxamide]", "Cisplatin Sensitization Assay": "+ (Compounds with a Cisplatin sensitization value >0.2 μM but <5 μM are marked with “+.”)"}
{"smiles": "Cc1ncn(C)c1-c1ccncc1NC(=O)c1c(N)nn2cc(F)cnc12", "note": "[I-C-78, 2-amino-N-(4-(1,4-dimethyl-1H-imidazol-5-yl)pyridin-3-yl)-6-fluoropyrazolo[1,5-a]pyrimidine-3-carboxamide]", "Cisplatin Sensitization Assay": "++ (Compounds with a Cisplatin sensitization value >0.02 μM but <0.2 μM are marked with “++.”)"}
{"smiles": "N#CCc1cnc2c(C(=O)Nc3cnccc3OCCCO)c(N)nn2c1", "note": "[I-O-40, 2-amino-6-(cyanomethyl)-N-(4-(3-hydroxypropoxy)pyridin-3-yl)pyrazolo[1,5-a]pyrimidine-3-carboxamide]", "Cisplatin Sensitization Assay": "++ (Compounds with a Cisplatin sensitization value >0.02 μM but <0.2 μM are marked with “++.”)"}
{"smiles": "CN(C)CCN1CCN(c2ccncc2NC(=O)c2c(N)nn3cc(Cl)cnc23)CC1", "note": "[I-N-49, 2-amino-6-chloro-N-(4-(4-(2-(dimethylamino)ethyl)piperazin-1-yl)pyridin-3-yl)pyrazolo[1,5-a]pyrimidine-3-carboxamide]", "Cisplatin Sensitization Assay": "+++ (Compounds with a Cisplatin sensitization value of <0.02 μM are marked with “+++.”)"}
{"smiles": "COC1CCN(c2ccncc2NC(=O)c2c(N)nn3cc(Cl)cnc23)CC1", "note": "[I-N-73, 2-amino-6-chloro-N-(4-(4-methoxypiperidin-1-yl)pyridin-3-yl)pyrazolo[1,5-a]pyrimidine-3-carboxamide]", "Cisplatin Sensitization Assay": "+++ (Compounds with a Cisplatin sensitization value of <0.02 μM are marked with “+++.”)"}
{"smiles": "Nc1nn2cc(F)cnc2c1C(=O)Nc1cnccc1N1CCC(C(=O)N2CCC2)CC1", "note": "[I-G-77, 2-amino-N-(4-(4-(azetidine-1-carbonyl)piperidin-1-yl)pyridin-3-yl)-6-fluoropyrazolo[1,5-a]pyrimidine-3-carboxamide]", "Cisplatin Sensitization Assay": "+++ (Compounds with a Cisplatin sensitization value of <0.02 μM are marked with “+++.”)"}
{"smiles": "N#CC1CN(C(=O)C2CCN(c3c(F)cncc3NC(=O)c3c(N)nn4cc(F)cnc34)CC2)C1", "note": "[I-G-76, 2-amino-N-(4-(4-(3-cyanoazetidine-1-carbonyl)piperidin-1-yl)-5-fluoropyridin-3-yl)-6-fluoropyrazolo[1,5-a]pyrimidine-3-carboxamide]", "Cisplatin Sensitization Assay": "+++ (Compounds with a Cisplatin sensitization value of <0.02 μM are marked with “+++.”)"}
{"smiles": "Nc1nn2cc(F)cnc2c1C(=O)Nc1cncc(F)c1N1CCC(S(=O)(=O)N2CCC2)CC1", "note": "[I-N-169, 2-amino-N-(4-(4-(azetidin-1-ylsulfonyl)piperidin-1-yl)-5-fluoropyridin-3-yl)-6-fluoropyrazolo[1,5-a]pyrimidine-3-carboxamide]", "Cisplatin Sensitization Assay": "+++ (Compounds with a Cisplatin sensitization value of <0.02 μM are marked with “+++.”)"}
{"smiles": "CCC(C#N)c1cnc2c(C(=O)Nc3cnccc3OC)c(N)nn2c1", "note": "(stereo not drawn) [I-O-20, 2-amino-6-(1-cyanopropyl)-N-(4-methoxypyridin-3-yl)pyrazolo[1,5-a]pyrimidine-3-carboxamide]", "Cisplatin Sensitization Assay": "++ (Compounds with a Cisplatin sensitization value >0.02 μM but <0.2 μM are marked with “++.”)"}
{"smiles": "CN1CC(N2CCN(C(=O)C3CCN(c4c(F)cncc4NC(=O)c4c(N)nn5cc(F)cnc45)CC3)CC2)C1", "note": "[I-G-96, 2-amino-6-fluoro-N-(5-fluoro-4-(4-(4-(1-methylazetidin-3-yl)piperazine-1-carbonyl)piperidin-1-yl)pyridin-3-yl)pyrazolo[1,5-a]pyrimidine-3-carboxamide]", "Cisplatin Sensitization Assay": "+++ (Compounds with a Cisplatin sensitization value of <0.02 μM are marked with “+++.”)"}
{"smiles": "Nc1nn2cc(F)cnc2c1C(=O)Nc1cnccc1N1CCCCC1", "note": "[I-N-152, 2-amino-6-fluoro-N-(4-(piperidin-1-yl)pyridin-3-yl)pyrazolo[1,5-a]pyrimidine-3-carboxamide]", "Cisplatin Sensitization Assay": "+++ (Compounds with a Cisplatin sensitization value of <0.02 μM are marked with “+++.”)"}
{"smiles": "COC1CN(C2CCN(c3ccncc3NC(=O)c3c(N)nn4cc(Cl)cnc34)CC2)C1", "note": "[I-N-107, 2-amino-6-chloro-N-(4-(4-(3-methoxyazetidin-1-yl)piperidin-1-yl)pyridin-3-yl)pyrazolo[1,5-a]pyrimidine-3-carboxamide]", "Cisplatin Sensitization Assay": "+++ (Compounds with a Cisplatin sensitization value of <0.02 μM are marked with “+++.”)"}
{"smiles": "CCN1CCN(c2ccncc2NC(=O)c2c(N)nn3cc(F)cnc23)CC1", "note": "[I-N-17, 2-amino-N-(4-(4-ethylpiperazin-1-yl)pyridin-3-yl)-6-fluoropyrazolo[1,5-a]pyrimidine-3-carboxamide]", "Cisplatin Sensitization Assay": "+++ (Compounds with a Cisplatin sensitization value of <0.02 μM are marked with “+++.”)"}
{"smiles": "N#CCc1cnc2c(C(=O)Nc3cnccc3OC3CCCCC3)c(N)nn2c1", "note": "[I-O-39, 2-amino-6-(cyanomethyl)-N-(4-(cyclohexyloxy)pyridin-3-yl)pyrazolo[1,5-a]pyrimidine-3-carboxamide]", "Cisplatin Sensitization Assay": "+++ (Compounds with a Cisplatin sensitization value of <0.02 μM are marked with “+++.”)"}
{"smiles": "COC(=O)N1CCN(c2c(F)cncc2NC(=O)c2c(N)nn3cc(F)cnc23)CC1", "note": "[I-N-261, methyl-4-(3-(2-amino-6-fluoropyrazolo[1,5-a]pyrimidine-3-carboxamido)-5-fluoropyridin-4-yl)piperazine-1-carboxylate]", "Cisplatin Sensitization Assay": "+++ (Compounds with a Cisplatin sensitization value of <0.02 μM are marked with “+++.”)"}
{"smiles": "CN(C)CCN(C)C(=O)C1CCN(c2c(F)cncc2NC(=O)c2c(N)nn3cc(F)cnc23)CC1", "note": "[I-G-31, 2-amino-N-(4-(4-((2-(dimethylamino)ethyl)(methyl)carbamoyl)piperidin-1-yl)-5-fluoropyridin-3-yl)-6-fluoropyrazolo[1,5-a]pyrimidine-3-carboxamide]", "Cisplatin Sensitization Assay": "+++ (Compounds with a Cisplatin sensitization value of <0.02 μM are marked with “+++.”)"}
{"smiles": "CC(C)(C#N)c1cnc2c(C(=O)Nc3cncc(F)c3N3CCN(C4COC4)CC3)c(N)nn2c1", "note": "[I-N-144]", "Cisplatin Sensitization Assay": "+++ (Compounds with a Cisplatin sensitization value of <0.02 μM are marked with “+++.”)"}
{"smiles": "CCN1CCN(C(=O)C2CCN(c3c(F)cncc3NC(=O)c3c(N)nn4cc(F)cnc34)CC2)CC1", "note": "[I-G-9, 2-amino-N-(4-(4-(4-ethylpiperazine-1-carbonyl)piperidin-1-yl)-5-fluoropyridin-3-yl)-6-fluoropyrazolo[1,5-a]pyrimidine-3-carboxamide]", "Cisplatin Sensitization Assay": "+++ (Compounds with a Cisplatin sensitization value of <0.02 μM are marked with “+++.”)"}
{"smiles": "Nc1nn2cc(F)cnc2c1C(=O)Nc1cncc(F)c1N1CCC(C(=O)N2CC(N3CCC3)C2)CC1", "note": "[I-G-49, N-(4-(4-([1,3′-biazetidine]-1′-carbonyl)piperidin-1-yl)-5-fluoropyridin-3-yl)-2-amino-6-fluoropyrazolo[1,5-a]pyrimidine-3-carboxamide]", "Cisplatin Sensitization Assay": "+++ (Compounds with a Cisplatin sensitization value of <0.02 μM are marked with “+++.”)"}
{"smiles": "N#CCc1cnc2c(C(=O)Nc3cnccc3Oc3ccccc3)c(N)nn2c1", "note": "[I-O-25, 2-amino-6-(cyanomethyl)-N-(4-phenoxypyridin-3-yl)pyrazolo[1,5-a]pyrimidine-3-carboxamide]", "Cisplatin Sensitization Assay": "+++ (Compounds with a Cisplatin sensitization value of <0.02 μM are marked with “+++.”)"}
